Results: patent publication US20080248008A1, “Inhibitors of Protein Kinase a Anchoring” (priority 2004, published 2008)

How the values were obtained:
RI(Δ1-24) = target: T1, RI(Δ1-24) (Bos taurus, UniProt P00514); assay: Co-precipitation with recombinant RI(Δ1-24) added to HEK293 lysate; type: binding; conditions: recombinant protein added to cell lysate
T1 construct: made in house; host or cells: E. coli BL21 (B121 [sic])
Text: Constructs and mutagenesis. Oligonucleotides with the following sequences were directionally cloned into EGFP-C (Clonetech) vector via TOPO blunt vector (Invitrogen) by using SalI and BamHI sites. MEME3(+), 5′-GTC GAC-CTGGAGCAGTACGCCAACCAGCTGGCCGACCAGATCATCAAGGAGGCCACCGAG-GGA TCC-3′; MEME3 (−), 5′-GGA TCC-CTCGGTGGCCTCCTTGATGATCTGGTCGGCCAGCTGGTTGGCGTACTGCTCCAG-GTC GAC-3′; Scramble (+), 5′-GTCGACATCGAGAAGGAGCTGGCCCAGCAGTACCAGAACGCCGACGCCATCACCCTGGAGGGATCC-3′; and Scramble (−), 5′-GGATCCCTCCAGGGTGATGGCGTCGGCGTTCTGGTACTGCTGGGCCAGCTCCTTCTCGATGTCGAC-3′. The site specific mutation, A98S, was made in RI wild type cloned into pRSETB (Invitrogen) using a site specific-mutagenesis kit (Stratagene). RI( 1-11), RI(Δ1-15) and RI(Δ1-24) mutants were made by PCR and re-cloned into pRSETB (Invitrogen). All constructs were confirmed by sequencing.
HEK293 cells at […] were transfected with ten μg of plasmid DNA (GFP, GFP-MEME3 or GFP-Scrambled MEME3) by using the CaCl2 method. […]
In FIG. 4D, the co-precipitation of recombinant full length and N-truncated RI (added to the cell lysate) with MEME3 was detected by immunoblotting using a monoclonal antibody against RI (lane 2-4).

RI (A98S) = target: T2, RI (A98S) (Bos taurus, UniProt P00514, A98S); assay: R-overlay (solid-phase binding) of 32P-labelled RI on membrane-synthesized peptides; parameters: species or system bovine
T2 construct: made in house; host or cells: E. coli BL21 (B121 [sic])
T2 sequence (P00514 whole entry A98S): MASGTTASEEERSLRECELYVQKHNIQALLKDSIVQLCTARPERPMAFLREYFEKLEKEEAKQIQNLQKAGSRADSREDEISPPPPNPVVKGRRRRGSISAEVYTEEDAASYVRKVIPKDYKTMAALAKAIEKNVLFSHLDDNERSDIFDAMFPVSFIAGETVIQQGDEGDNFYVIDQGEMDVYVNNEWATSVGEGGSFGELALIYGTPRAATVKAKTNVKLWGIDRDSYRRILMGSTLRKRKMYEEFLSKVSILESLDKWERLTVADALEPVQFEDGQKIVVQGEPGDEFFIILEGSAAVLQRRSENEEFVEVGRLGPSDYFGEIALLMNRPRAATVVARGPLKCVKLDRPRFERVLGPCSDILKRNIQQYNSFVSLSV
Protocol: Autospot Peptide Array. Peptide arrays were synthesized on cellulose paper by using an Autospot Robot ASP222 (ABiMED, Langenfeld, Germany) as described (Frank, R., 1992, Tetrahedron 48, 123-132) or Multipep automated peptide synthesizer (INTAVIS Bioanalytical Instruments AG, Koeln, Germany) as described (Frank, R., 1992, Tetrahedron 48, 123-132).
R-overlay. R-overlays were conducted as described, using ^32P-labeled recombinant murine RII (Hausken, Z. E., et al., 1998 in Protein Targeting Protocols, ed. Clegg, R. A. (Humana, Totowa, N.J.), Vol. 88, pp. 47-64) or recombinant bovine RI (A98S) or by cold RI-overlay where bound RIα was detected by Western blot. Cold RI-overlay was performed by incubating the membranes with 250 nM RI overnight at 4° C., then the membranes were washed five times in TBST for 5 min. Detection of RI was performed using an anti-RI rabbit polyclonal antibody (Santa Cruz) at a concentration of 0.2 μg/μl for 1 hour at 4° C. Then the membranes were washed five times for 5 minutes in PBS followed by incubation with HRP-conjugated anti-rabbit IgGs (1:5000) for 1 hour at 4° C. The membranes were washed in PBS as described above before detection by Supersignal West Dura Extended Duration Substrate (Pierce).
Densitometric analysis. The densitometric analysis was performed using Scion Image (www.scioncorp.com) (Scion Coorperation, Mo., USA) or Quantity One version 4.5.0, (BioRad).

RIIα = target: T3, RIIα (Mus musculus, UniProt P12367); assay: Fluorescence polarization, dissociation constant for RII; type: binding; conditions: qualitative
T3 construct: His tag; made in house; host or cells: E. coli BL21 (B121 [sic])
T3 sequence (P12367 whole entry): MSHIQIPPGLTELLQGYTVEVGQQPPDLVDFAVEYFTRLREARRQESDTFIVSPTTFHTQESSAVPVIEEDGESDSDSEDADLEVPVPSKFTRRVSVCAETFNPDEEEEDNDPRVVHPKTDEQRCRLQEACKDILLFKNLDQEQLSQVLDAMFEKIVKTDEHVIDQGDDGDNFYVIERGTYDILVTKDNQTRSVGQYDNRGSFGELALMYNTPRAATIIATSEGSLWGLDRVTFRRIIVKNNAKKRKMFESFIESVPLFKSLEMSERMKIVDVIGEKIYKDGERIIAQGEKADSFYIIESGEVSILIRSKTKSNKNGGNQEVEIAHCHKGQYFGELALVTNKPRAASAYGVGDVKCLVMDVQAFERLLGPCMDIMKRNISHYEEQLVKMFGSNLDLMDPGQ
Protocol: Fluorescence Polarization. FITC-labeled peptides (SynPep, San Diego) that were used for fluorescence polarization studies included MEME3 (LEQYANQLADQIIKEATEK(5-Carboxyfluorescein)-CONH2) and MEME3 scrambled peptide (IEKELAQQYQNADAITLEK(5-Carboxyfluorescein)-CONH2). Peptides (0.5 nM for RI experiments and 1 nM for RII experiments) were suspended to working dilutions in phosphate-buffered saline containing 5 μg/μl BSA, pH 7.0. Increasing concentrations of recombinant bovine RI wt or recombinant murine RII were added to a PBS solution and mixed with each FITC-labeled peptide. Each sample was incubated for 2.5 hours. Fluorescence polarization was measured on a Beacon 2000 (Panvera, Madison, Wis.), following the manufacturer's instructions. Saturation binding curves were generated with PRISM graphing software (GraphPad, San Diego). Dissociation constants (Kd) were calculated from the nonlinear regression curve from averages of minimum three individual experiments.
Protein expression and purification. Human RI, Bovine RI and N-terminal deletions thereof or murine RII was expressed in E. coli B121 by IPTG induction. The RI containing pellet was incubated in lysis buffer (10 mM MOPS, pH 6.5, 100 mM NaCl, 10 μM DTT added protease inhibitors) and sonicated (Branson Sonifier 250) for 1 minute in three intervals at 0° C. […]

T1 sequence (P00514 25-380, stated change not applied): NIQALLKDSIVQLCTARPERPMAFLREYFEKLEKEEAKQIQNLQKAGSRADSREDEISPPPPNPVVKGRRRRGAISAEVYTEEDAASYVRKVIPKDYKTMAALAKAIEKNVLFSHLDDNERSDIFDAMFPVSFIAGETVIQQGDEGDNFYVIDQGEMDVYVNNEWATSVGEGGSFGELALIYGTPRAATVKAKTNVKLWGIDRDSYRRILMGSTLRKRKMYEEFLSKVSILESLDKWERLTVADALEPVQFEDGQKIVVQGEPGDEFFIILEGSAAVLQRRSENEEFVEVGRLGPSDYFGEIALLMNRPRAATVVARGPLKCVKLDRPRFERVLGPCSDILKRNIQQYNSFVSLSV

Row | Molecule | co-precipitation with RI(Δ1-24) (RI(Δ1-24)) | competition of RI-binding to membrane-bound MEME3 (RI (A98S); 500 nM peptide in solution) | affinity for RI compared to that of PDSM (RI (A98S); densitometry of autoradiographs, n=3, higher) | RI binding (RI-32P-overlay, autoradiography) (RI (A98S); peptides on membrane, qualitative) | interaction with RII subunit (RIIα)
1 | CC[C@H](C)[C@H](NC(=O)[C@H](CCC(N)=O)NC(=O)[C@H](CC(=O)O)NC(=O)[C@H](C)NC(=O)[C@H](CC(C)C)NC(=O)[C@H](CCC(N)=O)NC(=O)[C@H](CC(N)=O)NC(=O)[C@H](C)NC(=O)[C@H](Cc1ccc(O)cc1)NC(=O)[C@H](CCC(N)=O)NC(=O)[C@H](CCC(=O)O)NC(=O)[C@@H](N)CC(C)C)C(=O)N[C@H](C(=O)N[C@@H](CCCCN)C(=O)N[C@@H](CCC(=O)O)C(=O)N[C@@H](C)C(=O)N[C@H](C(=O)N[C@@H](CCC(=O)O)C(=O)N[C@@H](CCCCNC(=O)c1ccc2c(c1)C(=O)OC21c2ccc(O)cc2Oc2cc(O)ccc21)C(N)=O)[C@@H](C)O)[C@@H](C)CC [MEME3] | did not precipitate MEME3 | competed the RI-binding | 1.9 times | bound with high affinity to RIα | –
2 | IEKELAQQYQNADAITLE [SM3, scrambled MEME3 negative control peptide, reference compound] | – | – | – | – | did not interact with either R subunit
